How the values were obtained:
U-87 MG [1] = experiment: Induction of apoptosis in human U-87 MG cells assessed as late apoptotic cells at 0.01 uM measured upto 24 hrs by Annexin V-FITC/PI staining based flow cytometry analysis (reference value: 0.54%); type: functional, U-87MG ATCC
U-87 MG [2] = experiment: Induction of apoptosis in human U-87 MG cells assessed as early apoptotic cells at 2 uM measured upto 24 hrs by Annexin V-FITC/PI staining based flow cytometry analysis (reference value: 0.45%); type: functional, U-87MG ATCC

CNC(=O)c1ccccc1Nc1nc(Nc2ccc(N3CCN(CCOC(=O)CCCc4ccc(N(CCCl)CCCl)cc4)CC3)cc2)ncc1C(F)(F)F
Activity (U-87 MG [1]): 4.61% | Activity (U-87 MG [2]): 46.5%

From ChEMBL document CHEMBL6153079, “Discovery of noncovalent diaminopyrimidine-based Inhibitors for glioblastoma via a dual FAK/DNA targeting strategy” (Eur J Med Chem, 2025)
